Consider 17 molecules from patent publication US8232273B2, “Heterocyclic compounds and methods of use” (Genentech, Inc., priority 2008, dated 2012).

As usually defined, the Ki is a dissociation constant, usually derived from enzyme kinetics or from competition with a known ligand. What is called IC50 is the concentration that inhibits the measured activity by half.

In assay [1] the target is T1, Bcl-xL (GST-Bcl-xL) (Homo sapiens, UniProt Q07817). The experiment in a line: TR-FRET binding assay, competition with F-Bak for the Bcl-xL binding site. The following applies: values listed in the order of Table 1, read-out: TR-FRET assay results (Ki), Bcl-xL.
T1 sequence (Q07817 whole entry, species assumed): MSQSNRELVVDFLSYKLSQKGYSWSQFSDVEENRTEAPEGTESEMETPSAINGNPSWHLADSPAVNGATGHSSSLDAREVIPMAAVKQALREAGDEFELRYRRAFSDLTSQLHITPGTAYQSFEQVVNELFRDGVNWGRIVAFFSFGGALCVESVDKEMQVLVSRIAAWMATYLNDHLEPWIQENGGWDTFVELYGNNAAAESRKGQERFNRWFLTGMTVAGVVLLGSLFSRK
The target in assay [2] is T1, Bcl-xL (GST-Bcl-xL). The experiment in a line: AlphaScreen Bcl-xL binding assay, competition with biotinylated Bim peptide. The settings on record: values listed in the order of Table 1; read-out: Alphascreen results (IC50) against the Bcl-xL protein. The arrangement: made in house. The source says:
The measurement of competition of compounds of the invention with Bim26-mer for a Bcl-2 family protein binding site using an Alpha Screen Bcl-xL binding assay:
The BH3 proteins AlphaScreen™ assay was used to identify active small molecules Bcl-2 family protein screen, e.g., Bcl-xL, hmMcl-1 screen.
The beads come in close proximity when the protein and the peptides interact. Donor beads contain a photosensitiser that converts oxygen to an excited form of O2 at an excitation of 680 nm. Energy is transformed from the singlet oxygen and reacts with chemiluminescers on the acceptor bead, resulting in light emission at 520-620 nm. […] With this information, the IC50 of each compound was calculated
GST-Bcl-xL, GST-hmMcl-1 and biotinylated GST proteins were prepared in-house and were stored as stock solutions at −80° C. The biotinylated-Bak, and biotinylated-Bim peptides were purchased from Auspep and were stored as 500 μM stock solutions in 100% DMSO at −80° C. […] DMSO was purchased from AnalaR.
Compounds of the invention were prepared as 10 mM stocks with 100% DMSO on the day prior to performing the assay. […] To achieve a final compound concentration of 1 μM, in a separate matrical plate, 28 μL of 100% DMSO and 2 μL of 10 mM compound was added to a well, mixed well, 2 μL of this solution was taken and added to 38 μL of 100% DMSO. 20 μL of this solution was added to the test matrical plate. Several control compounds were included in the test plates. For the control wells 15 μL 100% DMSO only was added to the appropriate wells of each plate. The compound plates were then serially diluted 2 fold using the MiniTrak. Once titrations were complete, the compound plate was immediately covered with a foil seal to prevent evaporation.
The assay and bead buffers were prepared fresh. Each titrated compound plate was assayed in duplicate. The following volumes were sufficient to run 12 Proxiplates (4 assay plates run in duplicate in each of Bclxl, hmMcl and counter assays)
Protein and Peptide Preparation; and Assay Performance • 1. The assay and bead buffers were used to prepare the acceptor and donor solutions. ALPHASCREEN™ beads are light sensitive and therefore prepared in a darkened room. 2.5 μL of beads were added per 1 mL of buffer. • 2. The volume of protein or peptide to add was calculated using the following formula:
V2=Volume of stock protein/Peptide to add to Acceptor/Donor solution • 3. The assay components were prepared as separate Acceptor and Donor Solutions. The Acceptor Solution contained Acceptor beads and target protein, while the Donor Solution contained Donor beads and biotinylated peptide.
• 4. After the solutions were prepared, they were left to incubate for 30 minutes at room temperature to allow the beads to bind to the protein and the peptide. • 5. 50 μL of Bcl-xL solution, 50 μL of hmMcl-1 solution and 50 μL of biotinylated-GST were added into separate deep wells on an assay plate. A control 50 μL Assay/Bead buffer was added separate well plates (no protein). • 6. 50 μL of Bim solution and 50 μL of Bak solution were added into separate deep well plates. • 7. Transfer 0.3 μL it of sample from the compound plate into each assay plate. • 8. Incubated for 30 mins at RT, then add 5 μL of the Donor solution. After addition of the Donor solution, tapped plates gently and sealed individually with adhesive film. • 9.
The percent inhibition was calculated using the following equation:
[formula] • x=RFU obtained after compound treatment • μ^−=RFU obtained for the negative controls (no protein controls) • μ^+=RFU obtained for the positive controls (DMSO vehicle controls)

SMILES strings stand for the structures.

In the case of `O=C(Nc1nc2ccccc2s1)c1cccc2c1CN(c1nc(C(=O)O)c(CCCOc3ccc(C4(c5ccccc5)CCCC4)cc3)s1)CC2` [Example 24, 2-(8-(benzo[d]thiazol-2-ylcarbamoyl)-3,4-dihydroisoquinolin-2(1H)-yl)-5-(3-(4-(1-phenylcyclopentyl)phenoxy)propyl)thiazole-4-carboxylic acid], at Bcl-xL (GST-Bcl-xL) [1], the Ki was determined as 7 nM. Besides, the IC50 on Bcl-xL (GST-Bcl-xL) [2] is 27 nM.

With `N#CC1Cc2cc(OCCCc3sc(N4CCc5cccc(C(=O)Nc6nc7ccccc7s6)c5C4)nc3C(=O)O)ccc21` (stereo not shown) [Example 25, 2-(8-(benzo[d]thiazol-2-ylcarbamoyl)-3,4-dihydroisoquinolin-2(1H)-yl)-5-(3-(1-cyano-1,2-dihydrocyclobutabenzen-4-yloxy)propyl)thiazole-4-carboxylic acid], at Bcl-xL (GST-Bcl-xL) [1], the Ki is 0.3 nM. Further, the IC50 on Bcl-xL (GST-Bcl-xL) [2] stood at 0.9 nM.

`N#CC1(c2ccc(OCCCc3sc(N4CCc5cccc(C(=O)Nc6nc7ccccc7s6)c5C4)nc3C(=O)O)cc2)CCC1` [Example 26, 2-(8-(benzo[d]thiazol-2-ylcarbamoyl)-3,4-dihydroisoquinolin-2(1H)-yl)-5-(3-(4-(1-cyanocyclobutyl)phenoxy)propyl)thiazole-4-carboxylic acid]: the Ki at Bcl-xL (GST-Bcl-xL) [1] was 3 nM. The 50% inhibitory concentration (IC50) at Bcl-xL (GST-Bcl-xL) [2] was determined as 5 nM.

As for `O=C(Nc1nc2ccccc2s1)c1cccc2c1CN(c1nc(C(=O)O)c(CCCOc3ccc4c5c3CCCN5CCC4)s1)CC2` [Example 27, 2-(8-(benzo[d]thiazol-2-ylcarbamoyl)-3,4-dihydroisoquinolin-2(1H)-yl)-5-(3-(1,2,3,5,6,7-hexahydropyrido[3,2,1-ij]quinolin-8-yloxy)propyl)thiazole-4-carboxylic acid], the Ki on Bcl-xL (GST-Bcl-xL) [1] was 1 nM. Also, the IC50 at Bcl-xL (GST-Bcl-xL) [2] was 7 nM.

Turning to `CCCN(CCc1ccc(OCCCc2sc(N3CCc4cccc(C(=O)Nc5nc6ccccc6s5)c4C3)nc2C(=O)O)cc1)CC1CCCc2c1ccc(OC)c2OC` (stereo not shown) [Example 28, 2-(8-(benzo[d]thiazol-2-ylcarbamoyl)-3,4-dihydroisoquinolin-2(1H)-yl)-5-(3-(4-(2-(((5,6-dimethoxy-1,2,3,4-tetrahydronaphthalen-1-yl)methyl)(propyl)amino)ethyl)phenoxy)propyl)thiazole-4-carboxylic acid], the Ki at Bcl-xL (GST-Bcl-xL) [1] was 1 nM. Further, the IC50 at Bcl-xL (GST-Bcl-xL) [2] was 8 nM.

Consider `Cc1cc(N2CCN(c3nc4ccccc4s3)CC2)ccc1OCCCc1sc(N2CCc3cccc(C(=O)Nc4nc5ccccc5s4)c3C2)nc1C(=O)O` [Example 29, 5-(3-(4-(4-(benzo[d]thiazol-2-yl)piperazin-1-yl)-2-methylphenoxy)propyl)-2-(8-(benzo[d]thiazol-2-ylcarbamoyl)-3,4-dihydroisoquinolin-2(1H)-yl)thiazole-4-carboxylic acid], for which the Ki on Bcl-xL (GST-Bcl-xL) [1] is 23 nM. Moreover, the IC50 on Bcl-xL (GST-Bcl-xL) [2] was 117 nM.

On to `N#C/C=C/c1cccc(OCCCc2sc(N3CCc4cccc(C(=O)Nc5nc6ccccc6s5)c4C3)nc2C(=O)O)c1` [Example 30, (E)-2-(8-(benzo[d]thiazol-2-ylcarbamoyl)-3,4-dihydroisoquinolin-2(1H)-yl)-5-(3-(3-(2-cyanovinyl)phenoxy)propyl)thiazole-4-carboxylic acid], for which the Ki on Bcl-xL (GST-Bcl-xL) [1] was 0.4 nM. Also, the IC50 at Bcl-xL (GST-Bcl-xL) [2] came out at 0.3 nM.

Consider `N#Cc1c(-c2ccc(OCCCc3sc(N4CCc5cccc(C(=O)Nc6nc7ccccc7s6)c5C4)nc3C(=O)O)cc2)n[nH]c1N` [Example 31, 5-(3-(4-(5-amino-4-cyano-1H-pyrazol-3-yl)phenoxy)propyl)-2-(8-(benzo[d]thiazol-2-ylcarbamoyl)-3,4-dihydroisoquinolin-2(1H)-yl)thiazole-4-carboxylic acid], for which, at Bcl-xL (GST-Bcl-xL) [1], the inhibitory constant (Ki) was 0.1 nM. The IC50 on Bcl-xL (GST-Bcl-xL) [2] worked out at 0.3 nM.

Consider `N#Cc1c(-c2ccc(O)cc2)n[nH]c1NCCCc1sc(N2CCc3cccc(C(=O)Nc4nc5ccccc5s4)c3C2)nc1C(=O)O` [Example 32, 2-(8-(benzo[d]thiazol-2-ylcarbamoyl)-3,4-dihydroisoquinolin-2(1H)-yl)-5-(3-(4-cyano-3-(4-hydroxyphenyl)-1H-pyrazol-5-ylamino)propyl)thiazole-4-carboxylic acid], for which the Ki at Bcl-xL (GST-Bcl-xL) [1] is 17 nM. Further, on Bcl-xL (GST-Bcl-xL) [2], the IC50 turned out to be 50 nM.

For `O=C(Nc1nc2ccccc2s1)c1cccc2c1CN(c1nc(C(=O)O)c(-c3ccc(CO)cc3)s1)CC2` [Example 34, 2-(8-(benzo[d]thiazol-2-ylcarbamoyl)-3,4-dihydroisoquinolin-2(1H)-yl)-5-(4-(hydroxymethyl)phenyl)thiazole-4-carboxylic acid], on Bcl-xL (GST-Bcl-xL) [1], the inhibitory constant (Ki) was 4 nM. Besides, on Bcl-xL (GST-Bcl-xL) [2], the IC50 was found to be 5 nM.

Consider `N#Cc1c(-c2ccc(OCc3ccc(-c4sc(N5CCc6cccc(C(=O)Nc7nc8ccccc8s7)c6C5)nc4C(=O)O)cc3)cc2)n[nH]c1N` [Example 35, 5-(4-((4-(5-amino-4-cyano-1H-pyrazol-3-yl)phenoxy)methyl)phenyl)-2-(8-(benzo[d]thiazol-2-ylcarbamoyl)-3,4-dihydroisoquinolin-2(1H)-yl)thiazole-4-carboxylic acid], for which the inhibition constant Ki on Bcl-xL (GST-Bcl-xL) [1] came to 4 nM. For the same molecule, the IC50 on Bcl-xL (GST-Bcl-xL) [2] turned out to be 10 nM.

For the molecule `O=C(Nc1nc2ccccc2s1)c1cccc2c1CN(c1nc(C(=O)O)c(CCCO)s1)CC2` [Example 38, 2-(8-(Benzo[d]thiazol-2-ylcarbamoyl)-3,4-dihydroisoquinolin-2(1H)-yl)-5-(3-hydroxypropyl)thiazole-4-carboxylic acid], on Bcl-xL (GST-Bcl-xL) [1], the Ki was determined as 5 nM. On Bcl-xL (GST-Bcl-xL) [2], the 50% inhibitory concentration (IC50) was 5 nM.

Regarding `O=C(Nc1nc2ccccc2s1)c1cccc2c1CN(c1nc(C(=O)O)c(CCCOc3ccc(-c4cccnc4)cc3)s1)CC2` [Example 41, 2-(8-(Benzo[d]thiazol-2-ylcarbamoyl)-3,4-dihydroisoquinolin-2(1H)-yl)-5-(3-(4-(pyridin-3-yl)phenoxy)propyl)thiazole-4-carboxylic acid], at Bcl-xL (GST-Bcl-xL) [1], the inhibitory constant (Ki) stood at 0.1 nM. The IC50 at Bcl-xL (GST-Bcl-xL) [2] was found to be 0.7 nM.

In the case of `N#Cc1c(-c2ccc(OCc3sc(N4CCc5cccc(C(=O)Nc6nc7ccccc7s6)c5C4)nc3C(=O)O)cc2)n[nH]c1N` [Example 45, 5-((4-(5-amino-4-cyano-1H-pyrazol-3-yl)phenoxy)methyl)-2-(8-(benzo[d]thiazol-2-ylcarbamoyl)-3,4-dihydroisoquinolin-2(1H)-yl)thiazole-4-carboxylic acid], the inhibition constant Ki at Bcl-xL (GST-Bcl-xL) [1] is 1 nM. In addition, the IC50 on Bcl-xL (GST-Bcl-xL) [2] is 4 nM.

With `O=C(Nc1nc2ccccc2s1)c1cccc2c1CN(c1nc(C(=O)O)c(CCCOc3ccc(-n4cccn4)cc3)s1)CC2` [Example 48, 5-(3-(4-(1H-pyrazol-1-yl)phenoxy)propyl)-2-(8-(benzo[d]thiazol-2-ylcarbamoyl)-3,4-dihydroisoquinolin-2(1H)-yl)thiazole-4-carboxylic acid], the Ki at Bcl-xL (GST-Bcl-xL) [1] was 0.05 nM. For the same molecule, the IC50 at Bcl-xL (GST-Bcl-xL) [2] amounted to 0.3 nM.

Regarding `O=C(Nc1nc2ccccc2s1)c1cccc2c1CN(c1nc(C(=O)O)c(CCOc3ccc(-n4ncc5cncnc54)cc3)s1)CC2` [Example 49, 5-(2-(4-(1H-pyrazolo[3,4-d]pyrimidin-1-yl)phenoxy)ethyl)-2-(8-(benzo[d]thiazol-2-ylcarbamoyl)-3,4-dihydroisoquinolin-2(1H)-yl)thiazole-4-carboxylic acid], the Ki on Bcl-xL (GST-Bcl-xL) [1] stood at 12 nM. Besides, the IC50 on Bcl-xL (GST-Bcl-xL) [2] is 80 nM.

In the case of `O=C(Nc1nc2ccccc2s1)c1cccc2c1CN(c1nc(C(=O)O)c(CCOc3cccc(-n4ncc5cncnc54)c3)s1)CC2` [Example 50, 5-(2-(3-(1H-pyrazolo[3,4-d]pyrimidin-1-yl)phenoxy)ethyl)-2-(8-(benzo[d]thiazol-2-ylcarbamoyl)-3,4-dihydroisoquinolin-2(1H)-yl)thiazole-4-carboxylic acid], the Ki at Bcl-xL (GST-Bcl-xL) [1] came to 2 nM. On Bcl-xL (GST-Bcl-xL) [2], the IC50 was determined as 10 nM.
